This is an account of results in ChEMBL document CHEMBL3046852, “Synthesis and analgesic activity of new pyridine-based heterocyclic derivatives” (2012).

The test system of assay [1] is Mus musculus. Briefly: Analgesic activity in Mus musculus albino (mouse) assessed as inhibition of formalin-induced paw licking behavior in both phases of formalin response at 25 mg/kg, ip administered 30 min before formalin challenge. It counts as functional, organism-based. Further details: dose 25 mg/kg.
In assay [2] the test system is Mus musculus. In words: Analgesic activity in Mus musculus albino (mouse) assessed as latency time at 25 mg/kg, ip after 30 min by hot-plate test. The class given is functional. To be noted: route intraperitoneal. In general terms: Hot-plate and tail-flick tests time the reaction to a heat stimulus.
Assay [3] concerns Mus musculus. Briefly: Analgesic activity in Mus musculus albino (mouse) assessed as latency time at 25 mg/kg, ip after 30 min in presence of 2 mg/kg, ip of mecamylamine by tail-flick test. It counts as functional.
Assay [4] relates to Mus musculus. Briefly: Analgesic activity in Mus musculus albino (mouse) assessed as latency time at 25 mg/kg, ip after 30 min by tail-flick test. To be noted: route intraperitoneal. The class given is functional.
Assay [5] relates to Mus musculus. Briefly: Analgesic activity in Mus musculus albino (mouse) assessed as latency time at 17.5 mg/kg, ip after 30 min by hot-plate test. To be noted: route intraperitoneal. It counts as functional.
For assay [6], the system named is Mus musculus. In words: Analgesic activity in Mus musculus albino (mouse) assessed as latency time at 17.5 mg/kg, ip after 30 min by tail-flick test. It counts as functional. To be noted: route intraperitoneal.

Each structure is given as a SMILES string. Active and inactive are the calls of the source. The rule behind the calls is not given here.

As for `Cc1cc(C)n(C(=O)c2cccnc2)n1`, the outcome in assay [1] was Active. The Time in assay [2] worked out at 8.3 s; in assay [3], 5.18 s; in assay [4] it was 7.69 s.
The corresponding values for `CC(=O)N1N=C(c2cccnc2)OC1C` (stereo not drawn) are “Active”, 10.03 s, 5.14 s and 8.95 s.
For the molecule `O=[N+]([O-])c1ccccc1-c1nnc(-c2cccnc2)[nH]1`, the Time in assay [2] amounted to 8.47 s; in assay [4] it was 6.15 s.
As for `CC(=O)N1N=C(c2cccnc2)OC1c1ccccc1` (stereo not drawn), the outcome in assay [1] was Active. Further, the values for the Time in assay [2], in assay [3] and in assay [4] were 10.03 s, 5.13 s and 8.44 s, respectively.
As to `c1ccc(-c2nnc(-c3ccncc3)[nH]2)cc1`, the Time in assay [2] is recorded as 7.81 s; in assay [4], 5.33 s.
`CC(=O)N1N=C(c2ccncc2)OC1C` (stereo not drawn): the result in assay [1] was Active. Also, the Time in assay [2] is recorded as 12.93 s; in assay [3] it was 5.14 s; in assay [4], 11.03 s.
As for `CC(=O)N1N=C(c2ccncc2)OC1c1ccccc1Cl` (stereo not drawn), the Time in assay [2] is listed as 7.81 s; in assay [4], 6.03 s.
Take `Clc1ccccc1-c1nnc(-c2cccnc2)[nH]1`: the Time in assay [2] is reported as 8.55 s; in assay [4] it was 5.53 s.
For the molecule `Cc1nnc(-c2cccnc2)[nH]1`, in assay [1], the outcome was Active. Besides, the Time in assay [2] amounted to 9.65 s; in assay [3], 5.17 s; in assay [4] it was 7.99 s.
On to `CC(=O)N1N=C(c2ccncc2)OC1c1ccccc1[N+](=O)[O-]` (stereo not drawn), for which the figures for the Time in assay [2] and in assay [4] were 7.48 s and 4.76 s, respectively.
Consider `CC(=O)N1N=C(c2cccnc2)OC1c1ccccc1[N+](=O)[O-]` (stereo not drawn), for which the Time came to 7.29 s in assay [2] and 4.93 s in assay [4].
In the case of `O=[N+]([O-])c1ccccc1-c1nnc(-c2ccncc2)[nH]1`, the result in assay [1] was Active. Further, the Time in assay [2] turned out to be 15.1 s; in assay [3] it was 5.23 s; in assay [4], 11.8 s.
For the molecule `CC(=O)N1N=C(c2cccnc2)OC1c1ccccc1Cl` (stereo not drawn), the Time in assay [2] is listed as 7.77 s; in assay [4], 5.16 s.
Take `Cc1cc(=O)[nH]n1C(=O)c1cccnc1`: the Time in assay [2] is listed as 7.54 s; in assay [4], 5.26 s.
For the molecule `Clc1ccccc1-c1nnc(-c2ccncc2)[nH]1`, the outcome in assay [1] was Active. Moreover, the Time in assay [2] is reported as 13.12 s; in assay [3], 5.12 s; in assay [4], 11.2 s.
Regarding `c1ccc(-c2n[nH]c(-c3cccnc3)n2)cc1`, the Time is listed as 7.5 s in assay [2] and 4.73 s in assay [4].
Take `CC(C)=CCN1CC[C@@]2(C)c3cc(O)ccc3C[C@@H]1[C@@H]2C` (relative stereo): the Time was determined as 19.89 s in assay [5] and 12.84 s in assay [6].
Consider `CC(=O)N1N=C(c2ccncc2)OC1c1ccccc1` (stereo not drawn), for which the Time in assay [2] came out at 7.78 s; in assay [4], 6.03 s.
The corresponding values for `Cc1cc(C)n(C(=O)c2ccncc2)n1` are 8.11 s and 6.4 s.
Turning to `Cc1n[nH]c(-c2ccncc2)n1`, the result in assay [1] was Active. The Time in assay [2] was found to be 9.49 s; in assay [3], 5.22 s; in assay [4] it was 7.62 s.
On to `Cc1cc(=O)[nH]n1C(=O)c1ccncc1`, for which the Time is reported as 7.51 s in assay [2] and 5.7 s in assay [4].
